# Patent US7608577B2, “Peptidyl ketones as inhibitors of DPIV” (OSI Pharmaceuticals, Inc., priority 2001, dated 2009)
# Tests used:
# [1] = target: T1, dipeptidyl peptidase IV from porcine kidney (Sus scrofa, UniProt P22411); assay: Ki determination, DPIV inhibition (inhibitor released from prodrug by APN); type: biochemical; details: for Ki: porcine kidney DPIV, substrate Gly-Pro-pNA, APN added to release inhibitor, HEPES pH7.6, read-out: Ki; for T1/2 (half-life, from enzyme activity versus reaction time): same assay as Ki, unstable competitive inhibitor
# T1 construct: dipeptidyl peptidase IV from porcine kidney with a specific activity against glycylprolyl-4-nitroaniline of 37.5 U/mg; from tissue; host or cells: porcine kidney
# T1 sequence (P22411 whole entry): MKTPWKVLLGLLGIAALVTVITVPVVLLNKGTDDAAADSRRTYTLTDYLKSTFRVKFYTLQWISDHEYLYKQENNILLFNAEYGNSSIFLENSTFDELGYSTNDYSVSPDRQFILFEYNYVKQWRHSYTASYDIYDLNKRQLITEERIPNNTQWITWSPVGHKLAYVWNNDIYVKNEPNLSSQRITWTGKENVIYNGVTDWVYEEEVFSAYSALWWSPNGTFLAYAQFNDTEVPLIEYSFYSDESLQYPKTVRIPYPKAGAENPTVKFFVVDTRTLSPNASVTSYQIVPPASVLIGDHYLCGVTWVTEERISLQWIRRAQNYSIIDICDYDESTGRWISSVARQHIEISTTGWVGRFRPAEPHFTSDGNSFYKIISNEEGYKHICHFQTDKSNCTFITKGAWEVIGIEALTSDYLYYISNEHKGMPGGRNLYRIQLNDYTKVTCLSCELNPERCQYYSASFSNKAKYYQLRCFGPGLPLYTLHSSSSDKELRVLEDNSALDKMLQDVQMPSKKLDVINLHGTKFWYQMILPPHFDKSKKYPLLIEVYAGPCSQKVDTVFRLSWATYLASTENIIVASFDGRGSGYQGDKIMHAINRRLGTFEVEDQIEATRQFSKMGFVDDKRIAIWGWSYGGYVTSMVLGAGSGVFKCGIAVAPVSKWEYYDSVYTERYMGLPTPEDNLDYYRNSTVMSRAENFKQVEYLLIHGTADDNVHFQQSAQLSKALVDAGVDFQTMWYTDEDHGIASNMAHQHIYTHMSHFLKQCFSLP
# Procedure: 500 μl test compound in a concentration range of 1*10^−5 M-1*10^−11M were admixed with and 500 μl HEPES buffer (40 mM, pH7.6; ion strength=0.125) and 20 μl of diluted DPIV. Release of the inhibitor from the prodrug as well the monitoring reaction (DPIV-catalyzed hydrolysis of Gly-Pro-pNA) were started by addition of a mixture of 10 μl of APN stock solution (4.9 mg/ml, Sigma, Taufkirchen, Germany) with 250 μl of the substrate (Gly-Pro-pNA, 0.05-4 mM). Development of yellow color due to 4-nitroaniline release were monitored at λ=405 nm for up to 180 min using UV1 Spectrometer (ThermoSpectronic).
# The Ki-values were calculated by fitting the first derivative of the time-progress curves using Graphit (v.4.0.13, Erithacus Software, Ltd, UK) and an equation for an unstable competitive inhibitor.
# The half-life (t1/2) was calculated by plotting the enzyme activity versus reaction time.
# [2] = target: T2, Acylamino acid-releasing enzyme (AARE) (Homo sapiens, UniProt P13798); assay: Cross reacting enzymes: AARE; type: biochemical; details: substrate Acetyl-Met-AMC, pH 7.2
# T2 sequence (P13798 1-732): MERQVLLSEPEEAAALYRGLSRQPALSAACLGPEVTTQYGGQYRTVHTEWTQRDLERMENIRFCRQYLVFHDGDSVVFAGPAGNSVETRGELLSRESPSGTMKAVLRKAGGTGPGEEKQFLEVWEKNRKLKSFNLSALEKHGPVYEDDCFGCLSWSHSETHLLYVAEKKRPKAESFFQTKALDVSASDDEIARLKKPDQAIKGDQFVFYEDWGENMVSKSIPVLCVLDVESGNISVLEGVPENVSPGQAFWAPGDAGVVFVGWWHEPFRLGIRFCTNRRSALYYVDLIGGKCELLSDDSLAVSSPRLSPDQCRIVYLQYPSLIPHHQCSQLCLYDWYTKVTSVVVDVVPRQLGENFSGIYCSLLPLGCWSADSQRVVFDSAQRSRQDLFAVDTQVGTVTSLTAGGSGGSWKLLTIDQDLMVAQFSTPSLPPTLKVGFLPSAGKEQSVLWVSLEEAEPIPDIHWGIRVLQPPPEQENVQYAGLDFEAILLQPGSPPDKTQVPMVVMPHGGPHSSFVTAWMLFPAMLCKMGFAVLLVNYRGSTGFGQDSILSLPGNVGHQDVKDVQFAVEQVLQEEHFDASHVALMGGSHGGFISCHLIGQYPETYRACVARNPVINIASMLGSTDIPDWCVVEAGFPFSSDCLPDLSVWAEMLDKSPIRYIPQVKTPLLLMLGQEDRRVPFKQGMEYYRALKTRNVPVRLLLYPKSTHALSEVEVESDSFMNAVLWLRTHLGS
# Procedure: The assay mixture was pre-incubated at 30° C. for 15 min. After pre-incubation, 50 μl Acetyl-Met-AMC solution (0.54 mM) was added. Release of the AMC was measured at 30° C. using a NOVOstar fluorescence microplate reader (BMG) and excitation/emission wavelengths of 380/460 nm.
# The IC50-values were calculated from the slopes of the progress curves using Graphit 4.0.15 (Erithacus Software, Ltd., UK).
# [3] = system: diabetic Zucker rats; assay: Glucose tolerance (OGTT) in diabetic Zucker rats; type: in vivo, Zucker rats (fa/fa); details: for Improvement: vs AUC control
# Procedure: N=30 male Zucker rats (fa/fa), mean age 11 weeks (5-12 weeks), mean body weight 350 g (150-400 g), were purchased from Charles River (Sulzfeld, Germany). They were kept for >12 weeks until all the fatty Zucker rats had the characteristics of manifest Diabetes mellitus.
# Animals were kept single-housed under conventional conditions with controlled temperature (22±2° C.) on a 12/12 hours light/dark cycle (light on at 06:00 a.m.). Standard pellets (ssniff®, Soest, Germany) and tap water acidified with HCl were allowed ad libitum.
# Fatty Zucker rats, 17-24 weeks old, adapted to the housing conditions, were well prepared for the tests. Catheters were implanted into the carotid artery of fatty Zucker rats under general anaesthesia (i.p. injection of 0.25 ml/kg b.w. Rompun® [2%], BayerVital, Germany and 0.5 ml/kg b.w. Ketamin 10, Atarost GmbH & Co., Twistringen, Germany). The animals were allowed to recover for one week. The catheters were flushed with heparin-saline (100 IU/ml) three times per week. In case of catheter dysfunction, a second catheter was inserted into the contra-lateral carotid artery of the respective rat. After one week of recovery from surgery, this animal was reintegrated into the study. In case of dysfunction of the second catheter, the animal was withdrawn from the study. A new animal was recruited and the experiments were continued in the planned sequence, beginning at least 7 days after catheter implantation.
# Fatty Zucker rats with intact catheter function were given in random order placebo (1 ml saline, 0.154 mol/l; N=9 animals as control), or test substance, solved in 1 ml saline (N=6 animals in each test group).
# After overnight fasting, the fatty Zucker rats were given placebo and test substance, respectively, via feeding tube orally (15 G, 75 mm; Fine Science Tools, Heidelberg, Germany) at −10 min. An oral glucose tolerance test (OGTT) with 2 g/kg b.w. glucose as a 40% solution (B. Braun Melsungen, Melsungen, Germany) was implemented at ±0 min. The glucose was administered via a second feeding tube. Arterial blood samples from the carotid catheter were collected at −30 min, −15 min, ±0 min and at 5, 10, 15, 20, 30, 40, 60, 90 and 120 min into 20 μl glass capillaries, which were placed in standard tubes filled with 1 ml solution for hemolysis (blood glucose measurement). […]
# Blood glucose: Glucose levels were measured using the glucose oxidase procedure (Super G Glukosemeβgerät; Dr. Müller Gerätebau, Freital, Germany).
Compound,Ki [1],"T1/2 (half-life, from enzyme activity versus reaction time) [1]",AARE IC50 [2],"AUC test compound ([3]; OGTT, 5 mg/kg b.w. oral)","Improvement ([3]; OGTT, 5 mg/kg b.w. oral)","AUC test compound ([3]; OGTT, 15 mg/kg b.w. oral)","Improvement ([3]; OGTT, 15 mg/kg b.w. oral)","AUC test compound ([3]; OGTT, 50 mg/kg b.w. oral)","Improvement ([3]; OGTT, 50 mg/kg b.w. oral)","AUC test compound ([3]; OGTT 2 g/kg glucose, 100 mg/kg b.w. oral)","Improvement ([3]; OGTT, 100 mg/kg b.w. oral)"
"Br.CC(=O)OCC(=O)[C@@H]1CCCN1C(=O)[C@@H](NC(=O)[C@H](C)N)C(C)C [H-Ala-Val-Pro-CH2O—CO—CH3*HBr, 2-[(Acetyloxy-methyl)carbonyl]-1-N-[(L)-Alanyl-(L)-Valinyl]-(2S)-pyrrolidine hydrobromide]",1.05 nM,10.8 min,no inhibition,309.1 mmol·min/L,44.9%,300.9 mmol·min/L,46.4%,254.7 mmol·min/L,54.6%,,
"Br.CC(C)[C@H](NC(=O)[C@H](C)N)C(=O)N1CCC[C@H]1C(=O)COC(=O)c1ccccc1 [H-Ala-Val-Pro-CO—CH2O—CO—Ph*HBr, 2-[(Benzoyloxy-methyl)carbonyl]-1-N-[{(L)-Alanyl}-(L)-Valinyl]-(2S)-pyrrolidine hydrobromide]",0.536 nM,15.1 min,no inhibition,209.1 mmol·min/L,59.5%,245.4 mmol·min/L,52.6%,160.5 mmol·min/L,69.0%,,
"Br.CC(=O)[C@@H]1CCCN1C(=O)[C@@H](NC(=O)[C@H](C)N)C(C)C [H-Ala-Val-Pro-Me*HBr, 2-Methylcarbonyl-1-N-[(L)-Alanyl-(L)-Valinyl]-(2S)-pyrrolidine hydrobromide]",47.6 nM,12.4 min,no inhibition,,,,,,,394.4 mmol·min/L,48.5%
